pIC50: −log10 of the molar value.
Tests used:
Nav1.8 sodium channel = Nav1.8 sodium channel (Homo sapiens (Human), UniProt Q9Y5Y9); test: NaV1.8 blocking activity, manual patch clamp; type: cell-based; settings: CHO cell line stably expressing Nav1.8
Procedure: The NaV1.8 blocking activity was determined by using a manual patch clamp technique to detect the effect of the subject on the channel currents of stably overexpressed Nav1.8.
CHO cell line stably expressing the Nav1.8 sodium channel was used for the experiments, gene information: sodium channel, voltage-gated, type 8, alpha (SCN10A), cDNA strictly similar to GenBank accession number: NM 006514.
Cells were cultured in HAM'S/F-12 medium containing 10% foetal bovine serum and 10 μg/mL Blasticidin, 200 μg/mL Hygromycin B, and 100 μg/mL Zeocin at 37° C., 5% CO2. For expansion or maintenance cultures, cells were treated with 0.25%-Trypsin-EDTA, washed and centrifuged, and then inoculated in 6-cm cell culture dishes with 2.5×10^5lls per cell culture dish (final volume: 5 mL).
Prior to the patch clamp detection, cells were separated with 0.25%-Trypsin-EDTA and 6.5×10^3 cells were spread onto coverslips and incubated (final volume: 500 μL) in 24-well plates for 18 hours, then the test was performed.
50 mM CsCl, 10 mM NaCl, 10 mM HEPES, 60 mM CsF, 20 mM EGTA, and pH was adjusted to 7.2 with CsOH. • Instrument information is provided in Table 2 below:
Prior to Nav1.8 channel current testing, a blank control solution (DMSO) was diluted into 10 ml of extracellular fluid as the working solution. Positive controls and subjects were first diluted with different doses of DMSO depending on the final concentration before being diluted as working solution using extracellular fluid. 100 nM TTX was added to each working solution to block the TTX-S current. The working solution was sonicated for 20 min before performing the patch clamp test detection.
Patch clamp manipulation: firstly, the capillary glass tube was drawn into a recording electrode using a microelectrode puller, then the electrode filled with intracellular fluid was loaded into the microelectrode holder, and the microelectrode manipulator was manoeuvred under an inverted microscope to immerse the electrode into the extracellular fluid and record the electrode resistance (Rpip). The electrode was then slowly contacted to the cell surface and negative pressure suction was given to form a GQ2 seal. At this time, fast capacitance compensation was performed and negative pressure was continually applied to suction through the cell membrane to form a whole-cell recording pattern. Finally, slow capacitance compensation was performed and experimental parameters such as series resistance (Rs) were recorded. No leakage compensation was given.
Drug administration was initiated when the Nav1.8 current was stabilized for whole-cell recordings, and the next concentration was detected after each drug concentration had acted for approximately 5 min (or until the current was stable). Cell-lined coverslips were placed in the recording bath under an inverted microscope, and the blank control external solution as well as the working solution of the compound to be tested flowed sequentially from low to high concentrations through the recording bath by using gravitational perfusion and thus acted on the cells, and a peristaltic pump was used to exchange fluids during the recording. The current detected by each cell in the compound-free external fluid served as its own control. Each concentration was repeated independently 2-3 times. All electrophysiological experiments were performed at room temperature.
The voltage stimulation scheme for whole-cell patch-clamp recording of Nav1.8 currents was as follows: when a whole-cell seal was formed, the voltage was clamped at −120 mV. The resting state recording of sodium currents was performed by maintaining the voltage for 5s and then depolarizing it to 0 mV, and then administering a depolarizing pulse (TP1) to 0 m V for 50 ms for detecting the resting state sodium currents. For half-inactivated state recording, the voltage was first stepped at different voltages and maintained for 5s and then a depolarizing pulse was given to 0 mV to detect the Vhalf. […]

[1] = Stability of the compound in liver microsomes (human); type: in vitro ADME; settings: 1 μM compound, 0.5 mg protein/mL
Procedure: (§1) 2.1.1. working solution: 5 μL of test or control compound stock solution (10 mM DMSO solution) was diluted with 495 μL of acetonitrile (ACN) to obtain an intermediate stock solution (100 μM, 99% ACN).
(§2) 2.2.2 Preparation procedure: An appropriate amount of NADPH powder was weighed and diluted with 10 mM MgCl2 buffer (working solution concentration: 10 mM; final reaction system concentration: 1 mM).
(§3) 2.3.2 Preparation procedure: The appropriate concentration of liver microsomal working solution was prepared in 100 mM potassium phosphate buffer;
(§4) Acetonitrile (ACN) solution at 4° C. containing 200 ng/mL of Tolbutamide and 200 ng/ml of labetalol as internal standards 2.5. Operation steps:
(§5) 2.5.2. Diluting liver microsomes with 100 mM potassium phosphate buffer to a concentration of 0.56 mg/mL.
(§6) 2.5.3. Transferring 445 μL of liver microsomal working solution (0.56 mg/mL) to pre-heated incubation plates T60 and NCF60, and then pre-heating the incubation plates T60 and NCF60 for 10 minutes at 37° C. with shaking. Transferring 54 μL of liver microsomes to each well of the blank plate, adding 6 μL of NAPDH coenzyme solution to the blank plate, and finally transferring 180 μL of termination solution to the blank plate.
(§7) 2.5.4 Adding 5 μL of compound working solution (100 μM) to the incubation plates T60 and NCF60 containing liver microsomes and mixing three times.
(§8) 2.5.5. Adding 50 μL of buffer to the NCF60 plate and mixing three times, starting the timer and incubating at 37° C. for 60 min with the plate shaking.
(§9) 2.5.6. Adding 180 μL of quenching solution and 6 μL of NAPDH coenzyme working solution sequentially to quenching plate TO, making sure that the plate was cold to prevent volatilization of the incubation solution.
(§10) 2.5.7. For plate T60, mixing well three times and immediately transferring 54 μL of mixing solution (0-min time point) to quenching plate TO, then adding 44 μL of NAPDH coenzyme working solution to incubation plate T60. Starting the timer:
(§11) 2.5.8. At the 5, 15, 30, 45 and 60 minute time points, adding 180 μL of quenching solution to the quenching plate and transferring 60 μL of reaction solution from the T60 plate to the quenching plate at each time point.
(§12) 2.5.9. For NCF60 plates, mixing well and transferring 60 μL of reaction solution from the NCF60 incubating solution to a quenching plate containing 180 μL of quenching solution at 60th minute.
(§13) 2.5.10. All plates were mixed on a shaker for 10 min and then centrifuged at 4000 rpm at 4° C. for 20 min.
(§14) 2.5.11. Transferring 80 μL of supernatant to 240 μL of HPLC water and mixing on a
(§15) 2.6.1. Calculating t1/2 and Clint (mic) values based on first-order elimination kinetics: […]

[2] = Stability of the compound in liver microsomes (mouse); type: in vitro ADME, CD-1 mouse; settings: 1 μM compound, 0.5 mg protein/mL
Procedure: as §1, §2, §3, §4, §5, §6, §7, §8, §9, §10, §11, §12, §13, §14, §15

[3] = Stability of the compound in liver microsomes (rat); type: in vitro ADME, SD rat; settings: 1 μM compound, 0.5 mg protein/mL
Procedure: as §1, §2, §3, §4, §5, §6, §7, §8, §9, §10, §11, §12, §13, §14, §15

CYP1A2 = CYP1A2 (Homo sapiens (Human), UniProt P05177); test: Human liver microsomal CYP inhibition test, CYP1A2; type: in vitro ADME; settings: microsomes
Procedure: (§16) 3.1 Buffer solutions: (1) potassium phosphate 100 mM; (2) magnesium chloride, 33 mM;
(§17) 3.2.3 Reservoir for compounds to be tested: Dissolving the compounds to be tested in DMSO to form a 10 mM DMSO solution.
(§18) 3.4.1 Preparation of human liver microsomal working solution (1.27×) (final concentration: 0.2 mg/mL)
(§19) 3.5.3 Adding 20 μL of substrate solution to the appropriate wells and 20 μL of potassium phosphate buffer to the blank wells;
(§20) 3.5.4 Adding 2 μL of different concentrations of target compounds (final concentrations from 0.05 μM to 50 μM, 7 concentrations in total) or standard inhibitors to each well, with 2 μL of methanol solution in the non-inhibitor and blank wells;
(§21) 3.5.5 Adding 1.012 mL of liver microsomes to 78.988 mL of potassium phosphate buffer, then adding 158 μL of liver microsomes solution to all wells; preheating the well plate for 10 minutes in a 37° C. water bath;
(§22) 3.5.6 Weighing 129.1 mg NADPH (purchased from SyncoZymes Co. Ltd.) and adding to 15.0 mL of 33 Mm MgCl2 solution to give a 10 mM concentration, adding 20 μL to each well;
(§23) 3.5.7 Mixing and incubating the well plate in a 37° C. water bath for 10 minutes, then adding 400 μL of cold termination solution at the appropriate time point;
(§24) 3.5.8 Centrifuging the sample at 4000 rpm for 20 minutes to precipitate the protein. Transferring 200 μL of supernatant to 100 μL of HPLC water and shaking for 10 minutes. The samples were analyzed by LC/MS/MS;
(§25) Percentage inhibition was plotted for blank control and different concentrations of target compounds by using XL fitting or SigmaPlot and the data were analyzed by non-linear regression. IC50 values were determined by using either 3-parameter or 4-parameter logistic equations.

CYP2C9 = CYP2C9 (Homo sapiens (Human), UniProt P11712); test: Human liver microsomal CYP inhibition test, CYP2C9; type: in vitro ADME; settings: human liver microsomes 0.2 mg/mL; substrate Diclofenac
Procedure: as §16, §17, §18, §19, §20, §21, §22, §23, §24, §25

CYP2C19 = CYP2C19 (Homo sapiens (Human), UniProt P33261); test: Human liver microsomal CYP inhibition test, CYP2C19; type: in vitro ADME; settings: human liver microsomes 0.2 mg/mL; substrate S-mephenytoin
Procedure: as §16, §17, §19, §20, §21, §22, §23, §24, §25

CYP2D6 = CYP2D6 (Homo sapiens (Human), UniProt P10635); test: Human liver microsomal CYP inhibition test, CYP2D6; type: in vitro ADME; settings: human liver microsomes 0.2 mg/mL; substrate Dextromethorphan
Procedure: as §16, §17, §18, §19, §20, §21, §22, §23, §24, §25

CYP3A-M = CYP3A-M (Homo sapiens, UniProt P08684); test: Human liver microsomal CYP inhibition test, CYP3A-M (midazolam); type: in vitro ADME; settings: human liver microsomes 0.2 mg/mL; substrate Midazolam
Procedure: as §16, §17, §18, §19, §20, §21, §22, §23, §24, §25

Nav1.8 sodium channel, sequence (Q9Y5Y9 whole entry): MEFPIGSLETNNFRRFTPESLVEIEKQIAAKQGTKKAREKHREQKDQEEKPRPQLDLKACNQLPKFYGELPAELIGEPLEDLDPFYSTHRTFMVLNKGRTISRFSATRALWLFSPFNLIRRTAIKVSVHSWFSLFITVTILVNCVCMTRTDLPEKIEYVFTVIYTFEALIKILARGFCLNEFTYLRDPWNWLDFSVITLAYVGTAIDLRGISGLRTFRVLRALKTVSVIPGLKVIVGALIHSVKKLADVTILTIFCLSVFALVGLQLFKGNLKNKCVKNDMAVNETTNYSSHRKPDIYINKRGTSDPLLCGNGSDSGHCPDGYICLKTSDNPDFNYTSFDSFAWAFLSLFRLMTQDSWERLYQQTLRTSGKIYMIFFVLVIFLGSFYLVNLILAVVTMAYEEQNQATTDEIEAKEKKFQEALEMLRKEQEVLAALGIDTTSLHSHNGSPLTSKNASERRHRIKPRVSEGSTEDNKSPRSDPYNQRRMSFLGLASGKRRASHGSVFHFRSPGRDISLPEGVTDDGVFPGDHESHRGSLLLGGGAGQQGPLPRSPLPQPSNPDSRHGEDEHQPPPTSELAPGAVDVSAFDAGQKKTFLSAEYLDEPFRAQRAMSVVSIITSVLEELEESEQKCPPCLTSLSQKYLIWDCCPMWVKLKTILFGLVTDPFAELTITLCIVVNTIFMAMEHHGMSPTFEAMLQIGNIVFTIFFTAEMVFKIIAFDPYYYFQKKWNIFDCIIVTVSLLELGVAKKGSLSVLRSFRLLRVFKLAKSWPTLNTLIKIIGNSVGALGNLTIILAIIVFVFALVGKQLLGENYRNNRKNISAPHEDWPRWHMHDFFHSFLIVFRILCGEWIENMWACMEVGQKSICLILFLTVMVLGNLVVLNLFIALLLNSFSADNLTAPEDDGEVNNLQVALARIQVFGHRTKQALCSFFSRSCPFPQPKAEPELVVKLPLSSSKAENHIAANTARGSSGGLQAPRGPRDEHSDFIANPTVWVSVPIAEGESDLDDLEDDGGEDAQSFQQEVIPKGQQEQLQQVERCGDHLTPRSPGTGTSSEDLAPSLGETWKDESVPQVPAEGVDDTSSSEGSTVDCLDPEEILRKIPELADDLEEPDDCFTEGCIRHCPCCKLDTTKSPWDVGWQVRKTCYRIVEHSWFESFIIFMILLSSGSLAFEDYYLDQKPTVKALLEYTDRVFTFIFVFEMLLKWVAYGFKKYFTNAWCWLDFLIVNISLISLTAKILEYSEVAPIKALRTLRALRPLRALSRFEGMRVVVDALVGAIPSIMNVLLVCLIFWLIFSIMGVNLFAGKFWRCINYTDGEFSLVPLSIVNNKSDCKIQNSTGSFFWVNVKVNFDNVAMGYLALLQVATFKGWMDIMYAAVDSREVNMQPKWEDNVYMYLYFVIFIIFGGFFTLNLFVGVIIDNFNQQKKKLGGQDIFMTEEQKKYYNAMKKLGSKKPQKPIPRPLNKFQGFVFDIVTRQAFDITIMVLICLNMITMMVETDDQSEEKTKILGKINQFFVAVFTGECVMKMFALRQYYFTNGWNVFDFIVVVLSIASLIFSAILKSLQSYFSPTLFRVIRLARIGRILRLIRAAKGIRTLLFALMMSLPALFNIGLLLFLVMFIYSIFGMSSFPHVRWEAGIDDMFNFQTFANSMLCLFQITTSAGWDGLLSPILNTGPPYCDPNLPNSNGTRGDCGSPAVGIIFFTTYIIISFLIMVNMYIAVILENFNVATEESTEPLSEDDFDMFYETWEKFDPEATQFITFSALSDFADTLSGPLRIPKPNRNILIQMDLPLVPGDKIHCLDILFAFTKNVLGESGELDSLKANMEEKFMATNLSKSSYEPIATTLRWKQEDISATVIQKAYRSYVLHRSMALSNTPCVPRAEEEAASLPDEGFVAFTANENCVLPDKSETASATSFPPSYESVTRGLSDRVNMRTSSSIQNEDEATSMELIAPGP
CYP2D6, sequence (P10635 whole entry): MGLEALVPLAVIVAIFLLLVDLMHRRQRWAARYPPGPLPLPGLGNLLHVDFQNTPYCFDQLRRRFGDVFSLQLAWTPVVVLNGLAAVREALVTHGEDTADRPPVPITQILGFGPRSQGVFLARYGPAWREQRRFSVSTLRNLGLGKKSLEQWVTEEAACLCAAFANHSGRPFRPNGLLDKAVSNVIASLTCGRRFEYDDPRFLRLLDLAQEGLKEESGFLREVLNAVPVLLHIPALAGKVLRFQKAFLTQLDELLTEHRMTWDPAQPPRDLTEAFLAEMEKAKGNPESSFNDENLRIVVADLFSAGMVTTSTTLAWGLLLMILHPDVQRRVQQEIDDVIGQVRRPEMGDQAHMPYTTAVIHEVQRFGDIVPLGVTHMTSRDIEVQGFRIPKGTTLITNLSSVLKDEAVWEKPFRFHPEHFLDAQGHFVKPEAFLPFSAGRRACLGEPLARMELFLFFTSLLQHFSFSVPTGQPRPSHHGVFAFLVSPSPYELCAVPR
CYP2C19, sequence (P33261 whole entry): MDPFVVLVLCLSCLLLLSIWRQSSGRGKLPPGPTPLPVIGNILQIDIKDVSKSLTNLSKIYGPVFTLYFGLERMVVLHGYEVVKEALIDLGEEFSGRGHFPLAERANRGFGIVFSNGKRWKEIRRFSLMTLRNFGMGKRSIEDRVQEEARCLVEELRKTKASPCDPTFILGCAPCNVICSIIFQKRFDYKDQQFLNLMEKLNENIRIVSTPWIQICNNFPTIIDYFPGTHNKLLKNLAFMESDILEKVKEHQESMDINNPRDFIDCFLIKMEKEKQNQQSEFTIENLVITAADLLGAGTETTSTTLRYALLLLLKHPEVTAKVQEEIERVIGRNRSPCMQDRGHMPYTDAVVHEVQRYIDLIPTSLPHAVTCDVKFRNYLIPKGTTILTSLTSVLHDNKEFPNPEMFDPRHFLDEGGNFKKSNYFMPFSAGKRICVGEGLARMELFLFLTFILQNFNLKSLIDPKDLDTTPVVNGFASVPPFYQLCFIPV
CYP1A2, sequence (P05177 whole entry): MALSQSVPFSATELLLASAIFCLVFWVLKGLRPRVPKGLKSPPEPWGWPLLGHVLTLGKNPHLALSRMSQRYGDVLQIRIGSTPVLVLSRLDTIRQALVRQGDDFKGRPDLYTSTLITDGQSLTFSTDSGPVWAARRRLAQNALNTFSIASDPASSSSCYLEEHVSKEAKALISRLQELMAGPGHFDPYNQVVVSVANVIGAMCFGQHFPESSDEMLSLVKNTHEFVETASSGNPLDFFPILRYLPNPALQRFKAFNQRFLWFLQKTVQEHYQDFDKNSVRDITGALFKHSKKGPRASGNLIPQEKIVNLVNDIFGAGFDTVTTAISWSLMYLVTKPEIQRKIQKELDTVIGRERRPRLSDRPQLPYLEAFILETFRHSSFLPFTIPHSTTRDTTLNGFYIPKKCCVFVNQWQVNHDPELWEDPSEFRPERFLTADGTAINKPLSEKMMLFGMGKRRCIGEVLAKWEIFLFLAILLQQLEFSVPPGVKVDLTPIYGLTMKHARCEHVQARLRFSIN
CYP3A-M, sequence (P08684 2-503 limits assumed): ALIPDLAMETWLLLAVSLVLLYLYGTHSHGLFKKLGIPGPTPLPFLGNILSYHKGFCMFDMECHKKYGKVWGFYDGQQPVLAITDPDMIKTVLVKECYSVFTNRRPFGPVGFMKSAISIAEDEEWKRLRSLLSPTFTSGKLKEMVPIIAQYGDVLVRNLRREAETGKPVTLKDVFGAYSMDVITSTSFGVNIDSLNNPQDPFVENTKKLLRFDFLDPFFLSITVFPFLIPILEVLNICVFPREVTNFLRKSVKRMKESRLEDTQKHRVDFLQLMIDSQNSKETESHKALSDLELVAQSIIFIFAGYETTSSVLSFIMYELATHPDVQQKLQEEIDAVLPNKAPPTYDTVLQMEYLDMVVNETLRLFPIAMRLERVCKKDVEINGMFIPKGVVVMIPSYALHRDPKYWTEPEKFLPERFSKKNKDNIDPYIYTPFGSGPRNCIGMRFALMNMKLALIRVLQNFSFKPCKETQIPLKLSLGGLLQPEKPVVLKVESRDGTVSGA
CYP2C9, sequence (P11712 whole entry): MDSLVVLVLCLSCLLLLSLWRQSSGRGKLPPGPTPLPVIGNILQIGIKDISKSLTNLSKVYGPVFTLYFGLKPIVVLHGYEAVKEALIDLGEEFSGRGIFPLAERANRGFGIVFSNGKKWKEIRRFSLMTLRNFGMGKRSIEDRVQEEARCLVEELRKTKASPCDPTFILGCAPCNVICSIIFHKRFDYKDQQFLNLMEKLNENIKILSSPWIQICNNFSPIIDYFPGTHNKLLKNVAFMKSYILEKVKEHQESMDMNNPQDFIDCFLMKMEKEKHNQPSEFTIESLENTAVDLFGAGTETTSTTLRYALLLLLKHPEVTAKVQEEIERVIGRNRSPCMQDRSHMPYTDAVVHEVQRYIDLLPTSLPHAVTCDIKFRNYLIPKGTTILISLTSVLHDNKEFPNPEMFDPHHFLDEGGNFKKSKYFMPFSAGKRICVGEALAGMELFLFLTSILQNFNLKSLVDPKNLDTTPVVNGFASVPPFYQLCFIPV

pIC50 (Nav1.8 sodium channel) | Human liver microsomes T½ ([1]; 37° C.) [min] | Human liver microsomes Residual (T = 60 min) ([1]; T = 60 min) [%] | Mouse liver microsomes T½ ([2]; 37° C.) [min] | Mouse liver microsomes Residual (T = 60 min) ([2]; T = 60 min) [%] | Rat liver microsomes T½ ([3]; 37° C.) [min] | Rat liver microsomes Residual (T = 60 min) ([3]; T = 60 min) [%] | Structure (SMILES) | Blocking rate(%) @10 nM (Nav1.8 sodium channel) [%] | Blocking rate (%) @3 nM (Nav1.8 sodium channel; 3 nM) [%] | pIC50 (CYP1A2) | IC50 (CYP2C9) [µM] | IC50 (CYP2C19) [µM] | IC50 (CYP2D6) [µM] | IC50 (CYP3A-M) [µM]
8.89 | 80.6 | 58.4 | 41.9 | 37.1 | 18.9 | 11.1 | COc1c([C@H]2[C@H](C(=O)Nc3ccnc(C(N)=O)c3)N[C@@](C)(C(F)(F)F)[C@H]2C)ccc(F)c1F [Compound 1, 4-((2R,3S,4S,5R)-3-(3,4-difluoro-2-methoxyphenyl)-4,5-dimethyl-5-(trifluoromethyl)pyrrolidine-2-carboxamido)pyridine amide] | 97.98 |  |  |  |  |  | 
 |  |  |  |  |  |  | COc1c([C@H]2[C@H](C(=O)Nc3ccc(F)c(C(=N)NO)c3)N[C@@](C)(C(F)(F)F)[C@H]2C)ccc(F)c1F.Cl [Compound 10, (2R,3S,4S,5R)-3-(3,4-difluoro-2-methoxyphenyl)-aza-(4-fluoro-3-(aza-hydroxycarbamimidoyl)phenyl)-4,5-dimethyl-5-(trifluoromethyl) pyrrolidine-2-carboxamide hydrochloride] | 99.13 | 95.18 | < 4.30 | > 50 | 3.05 | > 50 | 39.3
